Test results as given in patent US20230374030A1, “SOLID-STATE FORMS OF RELUGOLIX” (MACFARLAN SMITH LIMITED, priority 2019, published 2023).

Experiments:
Type in all cases: physicochemical
[1] = Dynamic vapor sorption (DVS); conditions: for weight loss in DVS: relative humidity about 0 to 95%
Method: DVS samples are analyzed using a TA Instruments Q5000SA gravimetric water sorption analyzer. The relative humidity is adjusted between about 0-95% and the weight of the sample is continuously monitored and recorded with respect to the relative humidity and time.

[2] = Solid-state stability under humidity (storage at high humidity; XRPD after DVS); conditions: for stability at various humidity levels: XRPD analysis after DVS
[3] = Solid-state stability on drying under vacuum
Method: Form A of the DMF solvate of relugolix is stable, i.e., it is unchanged after prolonged drying (e.g., about 2 days) under vacuum at about 70° C.

Row | Structure (SMILES) | weight loss in DVS [1] | stability at various humidity levels [2] | stability after prolonged drying ([3]; about 2 days under vacuum at about 70° C.) | loss of mass in DVS ([1]; at about 90% RH) | stability under humidity ([2]; about 97% humidity, ambient temperatures, over a month) | XRPD changes after drying ([3]; about 18 hours at about 30° C. under vacuum) | water absorption in DVS (and secretion of it all) ([1]; relative humidity about 0 to about 95%)
1 | CONC(=O)Nc1ccc(-c2sc3c(c2CN(C)C)c(=O)n(-c2ccc(OC)nn2)c(=O)n3Cc2c(F)cccc2F)cc1 [Form B of anhydrous relugolix, 1-[4-[1-[(2,6-difluorophenyl)-methyl]-5-[(dimethylamino)methyl]-3-(6-methoxypyridazin-3-yl)-2,4-dioxothieno-[2,3-d]pyrimidin-6-yl]phenyl]-3-methoxyurea] | about 7% | remains stable | – | – | – | – | –
2 | CONC(=O)Nc1ccc(-c2sc3c(c2CN(C)C)c(=O)n(-c2ccc(OC)nn2)c(=O)n3Cc2c(F)cccc2F)cc1 [Form A of the DMF solvate of relugolix, 1-[4-[1-[(2,6-difluorophenyl)-methyl]-5-[(dimethylamino)methyl]-3-(6-methoxypyridazin-3-yl)-2,4-dioxothieno-[2,3-d]pyrimidin-6-yl]phenyl]-3-methoxyurea] | – | – | unchanged | about 1% | remains unchanged | – | –
3 | CONC(=O)Nc1ccc(-c2sc3c(c2CN(C)C)c(=O)n(-c2ccc(OC)nn2)c(=O)n3Cc2c(F)cccc2F)cc1 [Form A of anhydrous relugolix, 1-[4-[1-[(2,6-difluorophenyl)-methyl]-5-[(dimethylamino)methyl]-3-(6-methoxypyridazin-3-yl)-2,4-dioxothieno-[2,3-d]pyrimidin-6-yl]phenyl]-3-methoxyurea] | about 2% | remains stable | – | – | – | no changes | –
4 | CONC(=O)Nc1ccc(-c2sc3c(c2CN(C)C)c(=O)n(-c2ccc(OC)nn2)c(=O)n3Cc2c(F)cccc2F)cc1 [Form C of anhydrous relugolix, 1-[4-[1-[(2,6-difluorophenyl)-methyl]-5-[(dimethylamino)methyl]-3-(6-methoxypyridazin-3-yl)-2,4-dioxothieno-[2,3-d]pyrimidin-6-yl]phenyl]-3-methoxyurea] | – | remains stable | – | – | – | – | ~2%
